Source: US20170184612A1, “USE OF LEUKOCYTES AND NOVEL BIOMARKERS IN THE DIAGNOSIS, CONFIRMATION, AND TREATMENT OF A NEUROLOGICAL DISORDER” (The Trustees of Columbia University in the City of New York, priority 2014, published 2017)

Assays:
[1] = test system: peripheral blood mononuclear cells (PBMC), T cells; experiment: ELISpot assay, gamma-interferon release (SFC) after stimulation with a-synuclein epitope pools; type: cell-based, human; conditions: for Pool +: IFNg, Pool Stimulated, number of donors with a positive response, Donors tested 1
Description: (§1) Blood from age matched controls and PD patients were obtained and mononuclear cells were isolated by gradient centrifugation.
(§2) Release of the cytokines gamma-interferon, which measures activation of CD4+ and/or CD8+ T cells, and the interleukin, IL-5, which measures activation of CD4+ T cells was measured by ELISpot assay. […] After 22 hours of stimulation at 37 C, the cells were removed and release of cytokines was measured by colorimetric detection of spot-forming cells (SFC). Confirmed release of cytokine is determined by the presence of a minimum of 20 SFC per million cells.
(§3) The binding algorithms in SubAim 1 predict how well the peptides would bind to MHC if present, but not if they are present in patients. To determine this, the presence of T cell response against the candidate antigens by patient blood-derived peripheral blood mononuclear cells (PBMC) is assessed by ELISPOT assays upon stimulation with the peptides. This assay detects and quantifies cytokine release (in this case, IFNγ and IL-5) from specific activated T cells.
(§4) Data were obtained from blood samples (25 ml) from 44 PD patients and 24 age-matched controls. The experiments were conducted blindly. PBMCs from these samples were isolated and exposed to pools comprising the 122 candidate class I and class II antigens and phosphorylated S129 epitopes generated in Subaim 1. For the PBMCs responsive to the pooled peptides, the response was then deconvoluted to identify individual epitopes.
(§5) PMBC fractions are recovered by standard methods with Ficoll gradient and T cells expansion (Oseroff et al., 2010). The methods for the analysis of T cell reactions and measurement of cytokines production using the enzyme-linked immunosorbent spot (ELISPOT) assay are published in analogous experiments to discover antigens in multiple sclerosis (Lolli et al., 2013) and in hay fever allergens (Oseroff et al., 2010). T cell responses are determined by measuring IFNγ and IL-5 release by ELISPOT. Statistical analysis of differences between populations is expected to be non-parametric and analyzed with the U-Mann-Whitney test. If there were a normal distribution of response, which is a priori unlikely as some patients have no T cell response, with an SD=1, 8 patients per group would be required to provide a p>90% that the study detect a >2 fold difference at a two-sided 0.05 significance level.

[2] = test system: peripheral blood mononuclear cells (PBMC), T cells; experiment: ELISpot assay, IL-5 release (SFC) after stimulation with a-synuclein epitope pools; type: cell-based, human
Description: as §1, §2, §3, §4, §5

[3] = Patients Summary, PD patients, of donors tested (peptide)
[4] = Patients Summary, PD patients, single peptide
[5] = number of donors positive to the single peptide, second 'Pool Stimulated' section (from r296), 12 donors tested
[6] = peptide + / donors tested (peptide), second 'Pool Stimulated' section (from r296), 12 donors tested
[7] = single peptide, second 'Pool Stimulated' section (from r296), 12 donors tested
[8] = pool 'Phospho' (phosphorylated peptides)
[9] = Patients Summary, Phospho pool peptides
[10] = Patients Summary, Phospho pool peptides, 10 donors tested
[11] = peptides of pool 'Poshpho', 8 donors tested
[12] = peptides of pool 'Poshpho', 8 donors tested, number of donors positive

Row | Substance | Pool + [1] | IFNg Peptide + (donors positive to the peptide) [1, 3] | IFNg Response Frequency [1, 4] [%] | IFNg Total SFC [1, 4] [SFC] | IFNg Peptide + [1, 5] | IFNg Response Frequency [1, 6] [%] | IFNg Total SFC [1, 7] [SFC] | IL-g Peptide + (donors positive to the peptide) [2, 3] | IL-g Response Frequency [2, 4] [%] | IL-g Total SFC [2, 4] [SFC] | IL-g Peptide + [2, 5] | IL-g Response Frequency [2, 6] [%] | IL-g Total SFC [2, 7] [SFC] | other results
1 | 3521.0013 (VTNVGGAVV; listed as Homo sapiens) | 0 | 1 | 50 | 209 | 0 | 0 | 0 | 0 | 0 | 0 | 0 | 0 | 0 | IFNg Avg SFC [1, 4]: 209 SFC
2 | 3521.0014 (KTVEGAGSI; listed as Homo sapiens) | 0 | 0 | 0 | 0 | 0 | 0 | 0 | 0 | 0 | 0 | 0 | 0 | 0 | 
3 | 3521.0015 (KTKEQVTNV; listed as Homo sapiens) | 0 | 0 | 0 | 0 | 0 | 0 | 0 | 0 | 0 | 0 | 0 | 0 | 0 | 
4 | 3521.0018 (MPVDPDNEA; listed as Homo sapiens) | 0 | 0 | 0 | 0 | 0 | 0 |  | 0 | 0 | 0 | 0 | 0 | 0 | 
5 | 3521.0019 (APGKTKEGV; listed as Homo sapiens) | 0 | 0 | 0 | 0 | 0 | 0 | 0 | 0 | 0 | 0 | 0 | 0 | 0 | 
6 | 3521.0021 (PGKTKEGVL; listed as Homo sapiens) | 0 | 1 | 13 | 36 | 0 | 0 | 0 | 0 | 0 | 0 | 0 | 0 | 0 | IFNg Avg SFC [1, 4]: 36 SFC
7 | 3521.0022 (GSIAAATGF; listed as Homo sapiens) | 0 | 0 | 0 | 0 | 0 | 0 | 0 | 0 | 0 | 0 | 0 | 0 | 0 | 
8 | 3521.0023 (YEMPSEEGY; listed as Homo sapiens) | 0 | 0 | 0 | 0 | 0 | 0 |  | 0 | 0 | 0 | 1 | 50 | 58 | Pool + [1, 8]: 1; IFNg Avg SFC [1, 9]: 680 SFC; IFNg Response Frequency [1, 9]: 30%; IFNg Total SFC [1, 9]: 2039 SFC; IFNg Peptide + (donors positive to the peptide) [1, 10]: 3; IFNg Avg SFC [1, 11]: 333 SFC; IFNg Response Frequency [1, 11]: 13%; IFNg Total SFC [1, 11]: 333 SFC; IFNg Peptide + [1, 12]: 1; IL-g Avg SFC [2, 9]: 1593 SFC; IL-g Response Frequency [2, 9]: 10%; IL-g Total SFC [2, 9]: 1593 SFC; IL-g Peptide + (donors positive to the peptide) [2, 10]: 1; IL-g Avg SFC [2, 11]: 193 SFC; IL-g Response Frequency [2, 11]: 13%; IL-g Total SFC [2, 11]: 193 SFC; IL-g Peptide + [2, 12]: 1; IL-g Avg SFC [2, 7]: 58 SFC
9 | 3521.0024 (DPDNEAYEM; listed as Homo sapiens) | 0 | 0 | 0 | 0 |  | 50 | 93.3 | 0 | 0 | 0 | 1 | 50 | 300 | IL-g Avg SFC [2, 7]: 300 SFC
10 | 3521.0025 (EEGAPQEGI; listed as Homo sapiens) | 0 | 1 | 25 | 290 | 0 | 0 | 0 | 2 | 50 | 172 | 0 | 0 | 0 | IFNg Avg SFC [1, 4]: 290 SFC; IL-g Avg SFC [2, 4]: 86 SFC
11 | 3521.0026 (MPSEEGYQD; listed as Homo sapiens) | 0 | 0 | 0 | 0 | 0 | 0 |  | 0 | 0 | 0 | 1 | 50 | 66 | Pool + [1, 8]: 1; IFNg Avg SFC [1, 9]: 407 SFC; IFNg Response Frequency [1, 9]: 40%; IFNg Total SFC [1, 9]: 1627 SFC; IFNg Peptide + (donors positive to the peptide) [1, 10]: 4; IFNg Avg SFC [1, 11]: 27 SFC; IFNg Response Frequency [1, 11]: 13%; IFNg Total SFC [1, 11]: 27 SFC; IFNg Peptide + [1, 12]: 1; IL-g Avg SFC [2, 9]: 773 SFC; IL-g Response Frequency [2, 9]: 10%; IL-g Total SFC [2, 9]: 773 SFC; IL-g Peptide + (donors positive to the peptide) [2, 10]: 1; IL-g Avg SFC [2, 11]: 93 SFC; IL-g Response Frequency [2, 11]: 13%; IL-g Total SFC [2, 11]: 93 SFC; IL-g Peptide + [2, 12]: 1; IL-g Avg SFC [2, 7]: 66 SFC
12 | 3521.0027 (AYEMPSEEGY; listed as Homo sapiens) | 0 | 0 | 0 | 0 | 0 | 0 |  | 0 | 0 | 0 | 0 | 0 | 0 | Pool + [1, 8]: 1; IFNg Avg SFC [1, 9]: 700 SFC; IFNg Response Frequency [1, 9]: 20%; IFNg Total SFC [1, 9]: 1400 SFC; IFNg Peptide + (donors positive to the peptide) [1, 10]: 2; IFNg Avg SFC [1, 11]: 53 SFC; IFNg Response Frequency [1, 11]: 13%; IFNg Total SFC [1, 11]: 53 SFC; IFNg Peptide + [1, 12]: 1; IL-g Avg SFC [2, 9]: 530 SFC; IL-g Response Frequency [2, 9]: 20%; IL-g Total SFC [2, 9]: 1060 SFC; IL-g Peptide + (donors positive to the peptide) [2, 10]: 2; IL-g Avg SFC [2, 11]: 87 SFC; IL-g Response Frequency [2, 11]: 13%; IL-g Total SFC [2, 11]: 87 SFC; IL-g Peptide + [2, 12]: 1
